From US10342837B2, “Extracts and compositions of helichrysum odoratissimum for preventing and treating skin cancers” (University of Pretoria, priority 2013, dated 2019)
≈ marks a conversion by molar mass, not a printed value. Numbered stars: 1 amine (or outer) side, 2 acyl side, 3 side chain; on linkers, the order of the positions; unused ones are H or OH. Bridge positions count the residues as written; N and C are the ends. Square brackets hold non-standard residues; d marks the D form. Peptide text beside a SMILES is read from it. I, II: the chains in the order shown. Actinocin(9to1) = Cc1c2oc3c(C)ccc(C(=O)[*:1])c3nc-2c(C(=O)[*:2])c(N)c1=O; NMeV = CN[C@H](C(=O)O)C(C)C; Sar = CNCC(=O)O

Columns and labels:
Assay type in all cases: cell-based
A431 cells = experiment: Light microscopy, haematoxylin and eosin staining of A431 cells (apoptosis); conditions: 0.025 μg/ml, 72 h exposure
Description: The specific concentrations of extract were chosen due to the anti-proliferative activity that was observed. Exponentially growing cells were seeded at 100,000 cell per well in 6-well plates on heat-sterilized coverslips. After 24 h incubation at 37° C. and 5% […] for cell adherence, cells were exposed to 15 μg/ml, 30 μg/ml and 7.5 μg/ml of H. odoratissimum extract including vehicle-treated control cells (2% DMSO); cells propagate in growth medium, as well as 0.025 μg/ml Actinomycin D and incubated for 72 h at 37° C. Cells were then fixed in Bouin's fixative for 30 min and stained by standard haematoxylin and eosin staining procedures (Stander et al. 2009).
The influence of H. odoratissimum was compared to a medium control, vehicle-treated control and Actinomycin D (FIG. 3).

U937 cells [1] = experiment: Cytotoxicity on U937 cells; conditions: U937 cells
Text: (§1) The cytotoxicity of the H. odoratissimum extract was first analyzed on the U937 cells to determine IC50 values at which the extract could be tested when evaluating the cytokine profile and to ensure that the concentrations of phytohemagglutinin (PHA) and pentoxifylline, used to determine the cytokine profile, was not toxic to the U937 cells.

IL-12 = IL-12 production in U937 cells (ELISA); conditions: for production of IL-12 of the controls compared to the medium control (in words): PHA at 5 μg/ml, pentoxifylline at 20 μg/ml
Description: (§2) The levels of cytokine production (IL-8 and IL-12) from cell supernatants were measured by enzyme-linked immunosorbent assay (ELISA) according to the manufacturer's protocol (BD Biosciences, San Diego, Calif., USA). The levels of IL-12 were determined as it was reported to act as a potential anti-tumour agent (Brunda et al. 1993). IL-8 was measured as it plays a major role in the progression of various cancer cells by invasion, migration, adhesion, proliferation (Kuai et al. 2012). Briefly U937 cells were plated at a concentration of 2.5×10^5 cell per well in a 24-well plate. The cells were incubated for 24 h with 0.1 μg/ml PMA at 37° C. and 5% CO2 to allow the monocytes to differentiate into macrophages. The cells were treated with various concentrations of H. odoratissimum extracts. Controls included 20 μg/ml pentoxifylline, 5 μg/ml phytohemagglutinin (PHA), as well as vehicle-treated control cells (1% DMSO) and a medium only control. The cells were incubated for a further 20 hrs and thereafter centrifuged at 980 rpm for 5 min to collect the cell free supernatant and analyse the concentration of IL-8 and IL-12.
(§3) H. odoratissimum was analyzed at 20 μg/ml, 15 μg/ml, 10 μg/ml and 5 μg/ml to determine whether the extract was able to induce the production of IL-12 and inhibit the production of IL-8 in phytohemagglutinin (PHA) stimulated U937 cells, the results of which are depicted in Table 2.

IL-8 = IL-8 production in U937 cells (ELISA)
Description: as §2, with “The cells were incubated for a further 20 hrs and thereafter centrifuged at 980 rpm for 5 min to collect the cell free supernatant and analyse the concentration of IL-8 and IL-12.” left out
as §3

U937 cells [2] = experiment: Cell viability of U937 cells in cytokine production test; conditions: sample at 5 μg/ml; U937 cells
Description: as §2, with “The cells were incubated for a further 20 hrs and thereafter centrifuged at 980 rpm for 5 min to collect the cell free supernatant and analyse the concentration of IL-8 and IL-12.” left out
as §3

[3] = Cytotoxicity on U937 cells; conditions: human
Text: as §1

[4] = Cell viability of U937 cells in cytokine production test; conditions: human
Description: as §2, with “The cells were incubated for a further 20 hrs and thereafter centrifuged at 980 rpm for 5 min to collect the cell free supernatant and analyse the concentration of IL-8 and IL-12.” left out
as §3

Row | Compound | A431 cell morphology (in words) (A431 cells) | IC50 (in μg/ml), cytotoxicity on U937 cells (U937 cells [1]) [µg/mL] | production of IL-12 of the controls compared to the medium control (in words) (IL-12) | IL-12 (IL-12; sample at 5 μg/ml) [pg/mL] | IL-8 (IL-8; sample at 5 μg/ml) [pg/mL] | Cell viability in % (U937 cells [2]) | IC50 [3] [µg/mL] | IL-12 (IL-12; sample at 20 μg/ml) [pg/mL] | IL-8 (IL-8; sample at 20 μg/ml) [pg/mL] | viability at 20 h, 20 μg/ml [4] [%]
1 | Cc1c2oc3c(C)ccc(C(=O)N[C@@H]4C(=O)N[C@H](C(C)C)C(=O)N5CCC[C@H]5C(=O)N(C)CC(=O)N(C)[C@@H](C(C)C)C(=O)O[C@@H]4C)c3nc-2c(C(=O)N[C@@H]2C(=O)N[C@H](C(C)C)C(=O)N3CCC[C@H]3C(=O)N(C)CC(=O)N(C)[C@@H](C(C)C)C(=O)O[C@@H]2C)c(N)c1=O [Actinomycin D] (I: T[dV]P[Sar][NMeV] / II: T[dV]P[Sar][NMeV]; ester I:1-I:C, II:1-II:C; linker I:N-II:N via Actinocin(9to1)) | a great amount of cell death and total loss of cell viability | – | – | – | – | – | – | – | – | –
2 | phytohemagglutinin [PHA] | – | 318 ± 7.8 | increase in IL-12 | 9.49 ± 3.8 | 107 ± 5.6 | 101% ± 0.3 | – | – | – | –
3 | CC(=O)CCCCn1c(=O)c2c(ncn2C)n(C)c1=O [Pentoxifylline, pentoxifylline] | – | – | inhibition | – | – | – | 170 ± 6.4 (≈ 611 µM) | 1.37 ± 0.9 | 51.2 ± 7.2 | 106
